From ChEMBL document CHEMBL1143372, “Synthesis of Pro-Xylane: a new biologically active C-glycoside in aqueous media” (2009)

How the values were obtained:
Format in all cases: functional, Homo sapiens
[1] = system: NHDF; test: Antiaging activity in NHDF assessed as D-[6-H3]-glucosamine incorporation into glycosaminoglycan fraction at 2 mM after 72 hrs relative to control
[2] = system: NHDF; test: Antiaging activity in NHDF assessed as D-[6-H3]-glucosamine incorporation into glycosaminoglycan fraction at 0.4 mM after 72 hrs relative to control
[3] = system: NHDF; test: Antiaging activity in NHDF assessed as D-[6-H3]-glucosamine incorporation into glycosaminoglycan fraction at 10 mM after 72 hrs relative to control
[4] = system: NHDF; test: Antiaging activity in NHDF assessed as D-[6-H3]-glucosamine incorporation into glycosaminoglycan fraction at 3 mM after 72 hrs relative to control
[5] = system: NHDF; test: Antiaging activity in NHDF assessed as D-[6-H3]-glucosamine incorporation into glycosaminoglycan fraction at 1 mM after 72 hrs relative to control
[6] = system: NHDF; test: Antiaging activity in NHDF assessed as D-[6-H3]-glucosamine incorporation into glycosaminoglycan fraction at 0.3 mM after 72 hrs relative to control
[7] = system: NHDF; test: Antiaging activity in NHDF assessed as D-[6-H3]-glucosamine incorporation into glycosaminoglycan fraction at 0.1 mM after 72 hrs relative to control
[8] = system: NHDF; test: Antiaging activity in NHDF assessed as D-[6-H3]-glucosamine incorporation into glycosaminoglycan fraction at 0.08 mM after 72 hrs relative to control
[9] = system: NHDF; test: Antiaging activity in NHDF assessed as D-[6-H3]-glucosamine incorporation into glycosaminoglycan fraction at 0.5 mM after 72 hrs relative to control
[10] = system: NHDF; test: Antiaging activity in NHDF assessed as D-[6-H3]-glucosamine incorporation into glycosaminoglycan fraction at 0.02 mM after 72 hrs relative to control

SMILES	Activity [1]	Activity [2]	Activity [3]	Activity [4]	Activity [5]	Activity [6]	Activity [7]	other results
CC(=O)C[C@@H]1OC[C@@H](O)[C@H](O)[C@H]1O	141%	110%	161%					
CC(=O)C[C@@H]1O[C@H](CO)[C@H](O)[C@H](O)[C@H]1O			99%	119%	136%			
CC(O)C[C@@H]1OC[C@@H](O)[C@H](O)[C@H]1O (stereo partly drawn)				218%	169%	139%		
O=C(C[C@@H]1OC[C@@H](O)[C@H](O)[C@H]1O)c1ccccc1					95%	102%	120%	
O[C@@H]1[C@H](O)[C@@H](O)OC[C@H]1O [LYXOSE]	86%	102%						Activity [8]: 90%
O=C[C@H](O)[C@@H](O)[C@H](O)CO [XYLOSE]							85%	Activity [9]: 52%; Activity [10]: 106%
